Experimental data reported in PubChem BioAssay AID1845203 (Molecular Pharmacology Branch, DTP, NCI, 2023).
Several values for one entry are separate records, joined by “and”; a condition that tells them apart may be missing. Identical values can stand only once.

Tested on: G-401 tumor spheroids, viability % test/control
Assay: Anticancer human tumor G-401 cell line growth inhibition;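 note: spheroids exposed to compound for 7 days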;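 for viability, T/C: 100% = DMSO vehicle-treated spheroids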
Conditions: spheroids with HUVEC and MSC; for viability, T/C: stronger effect = lower value
In short: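 Complex spheroids of malignant cells with endothelial cells and mesenchymal stem cells; agents alone or combined, from near clinical Cmax (or 10 microM if unknown) down in half-log steps, 0.25% DMSO final.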

Compound: CC1COCCN1c1cc(-c2ccnn2C)c2ccnc(-c3ccn[nH]3)c2n1 (configuration not stated) + COc1cc2c(cc1O)CCNC21CSC2c3c(OC(C)=O)c(C)c4c(c3C(COC1=O)N1C(O)C3Cc5cc(C)c(OC)c(O)c5C(C21)N3C)OCO4
- IC50 (curve of first compound, second compound 30 pM): 0.0396 µM
- IC50 (curve of first compound, second compound 94.9 pM): < 0.0316 µM
- IC50 (curve of first compound, second compound 0.0003 µM): < 0.0316 µM
- IC50 (curve of first compound, second compound 0.000949 µM): < 0.0316 µM
- IC50 (curve of first compound, second compound 0.003 µM): < 0.0316 µM
- viability, T/C (second compound 30 pM, first compound 0.0316 µM): 57.3%
- viability, T/C (second compound 30 pM, first compound 0.1 µM): 22.1%
- viability, T/C (second compound 30 pM, first compound 0.316 µM): 12.5%
- viability, T/C (second compound 30 pM, first compound 1 µM): 12.3%
- viability, T/C (second compound 30 pM, first compound 3.16 µM): 14.6%
- viability, T/C (second compound 30 pM, first compound 10 µM): 16.3%
- viability, T/C (second compound 94.9 pM, first compound 0.0316 µM): 32%
- viability, T/C (second compound 94.9 pM, first compound 0.1 µM): 16.9%
- viability, T/C (second compound 94.9 pM, first compound 0.316 µM): 10.8%
- viability, T/C (second compound 94.9 pM, first compound 1 µM): 11.2%
- viability, T/C (second compound 94.9 pM, first compound 3.16 µM): 12.9%
- viability, T/C (second compound 94.9 pM, first compound 10 µM): 15.8%
- viability, T/C (second compound 0.0003 µM, first compound 0.0316 µM): 13.1%
- viability, T/C (second compound 0.0003 µM, first compound 0.1 µM): 10.8%
- viability, T/C (second compound 0.0003 µM, first compound 0.316 µM): 9.87%
- viability, T/C (second compound 0.0003 µM, first compound 1 µM): 9.44%
- viability, T/C (second compound 0.0003 µM, first compound 3.16 µM): 11%
- viability, T/C (second compound 0.0003 µM, first compound 10 µM): 14%
- viability, T/C (second compound 0.000949 µM, first compound 0.0316 µM): 7.87%
- viability, T/C (second compound 0.000949 µM, first compound 0.1 µM): 7.07%
- viability, T/C (second compound 0.000949 µM, first compound 0.316 µM): 6.97%
- viability, T/C (second compound 0.000949 µM, first compound 1 µM): 4.82%
- viability, T/C (second compound 0.000949 µM, first compound 3.16 µM): 3.79%
- viability, T/C (second compound 0.000949 µM, first compound 10 µM): 1.07%
- viability, T/C (second compound 0.003 µM, first compound 0.0316 µM): 0.15%
- viability, T/C (second compound 0.003 µM, first compound 0.1 µM): 0.14%
- viability, T/C (second compound 0.003 µM, first compound 0.316 µM): 0.12%
- viability, T/C (second compound 0.003 µM, first compound 1 µM): 0.11%
- viability, T/C (second compound 0.003 µM, first compound 3.16 µM): 0.11%
- viability, T/C (second compound 0.003 µM, first compound 10 µM): 0.17%

Compound: COc1ccc([C@@H](O)c2cc(-c3ncnc4cc(N5CCOCC5)ccc34)c(F)cc2Cl)nn1
- viability, T/C (compound 0.0316 µM): 101% and 107% and 106%
- viability, T/C (compound 0.1 µM): 91.2% and 94.8% and 97.8%
- viability, T/C (compound 0.316 µM): 82.3% and 92.2% and 94.8%
- viability, T/C (compound 1 µM): 50.2% and 63.6% and 69.6%
- viability, T/C (compound 3.16 µM): 22.2% and 24% and 31%
- viability, T/C (compound 10 µM): 11% and 10.1% and 15.4%
- IC50 (curve of compound): 1.02 µM and 1.48 µM and 1.8 µM

Compound: Cc1cc(C)c(CNC(=O)c2cc(-c3ccc(CN4CCOCC4)cc3)cc3c2cnn3C2CCCC2)c(=O)[nH]1 + Cn1nnc2c(C(N)=O)ncn2c1=O
- IC50 (curve of first compound, second compound 1 µM): > 10 µM
- IC50 (curve of first compound, second compound 3.16 µM): > 10 µM
- IC50 (curve of first compound, second compound 10 µM): > 10 µM
- IC50 (curve of first compound, second compound 31.6 µM): > 10 µM
- IC50 (curve of first compound, second compound 100 µM): 8.79 µM
- viability, T/C (second compound 1 µM, first compound 0.0316 µM): 111%
- viability, T/C (second compound 1 µM, first compound 0.1 µM): 106%
- viability, T/C (second compound 1 µM, first compound 0.316 µM): 95.8%
- viability, T/C (second compound 1 µM, first compound 1 µM): 105%
- viability, T/C (second compound 1 µM, first compound 3.16 µM): 87.9%
- viability, T/C (second compound 1 µM, first compound 10 µM): 62.5%
- viability, T/C (second compound 3.16 µM, first compound 0.0316 µM): 103%
- viability, T/C (second compound 3.16 µM, first compound 0.1 µM): 104%
- viability, T/C (second compound 3.16 µM, first compound 0.316 µM): 105%
- viability, T/C (second compound 3.16 µM, first compound 1 µM): 93.3%
- viability, T/C (second compound 3.16 µM, first compound 3.16 µM): 80.6%
- viability, T/C (second compound 3.16 µM, first compound 10 µM): 55.8%
- viability, T/C (second compound 10 µM, first compound 0.0316 µM): 103%
- viability, T/C (second compound 10 µM, first compound 0.1 µM): 99%
- viability, T/C (second compound 10 µM, first compound 0.316 µM): 97.1%
- viability, T/C (second compound 10 µM, first compound 1 µM): 90.1%
- viability, T/C (second compound 10 µM, first compound 3.16 µM): 82.6%
- viability, T/C (second compound 10 µM, first compound 10 µM): 53.5%
- viability, T/C (second compound 31.6 µM, first compound 0.0316 µM): 94.3%
- viability, T/C (second compound 31.6 µM, first compound 0.1 µM): 94.4%
- viability, T/C (second compound 31.6 µM, first compound 0.316 µM): 92.9%
- viability, T/C (second compound 31.6 µM, first compound 1 µM): 91.5%
- viability, T/C (second compound 31.6 µM, first compound 3.16 µM): 80.5%
- viability, T/C (second compound 31.6 µM, first compound 10 µM): 52%
- viability, T/C (second compound 100 µM, first compound 0.0316 µM): 96.5%
- viability, T/C (second compound 100 µM, first compound 0.1 µM): 103%
- viability, T/C (second compound 100 µM, first compound 0.316 µM): 94.3%
- viability, T/C (second compound 100 µM, first compound 1 µM): 93.6%
- viability, T/C (second compound 100 µM, first compound 3.16 µM): 74.2%
- viability, T/C (second compound 100 µM, first compound 10 µM): 46.9%

Compound: COc1cc2c(cc1O)CCNC21CSC2c3c(OC(C)=O)c(C)c4c(c3C(COC1=O)N1C(O)C3Cc5cc(C)c(OC)c(O)c5C(C21)N3C)OCO4 (configuration not stated)
- viability, T/C (compound 30 pM): 99.4% [middle of 10 runs]
- viability, T/C (compound 0.0003 µM): 38.9% [middle of 10 runs]
- viability, T/C (compound 0.000949 µM): 7.91% [middle of 10 runs]
- viability, T/C (compound 0.003 µM): 0.12% [middle of 5 runs]
- IC50 (compound alone, run of 12/12/2019): 0.233 nM [middle of 10 runs]
